From patent US4620005A, “1-isopropyl-4[(4-tetrahydro-1-naphthoyloxy phenyl)(alkylene)-carbonyl(oxymethlcarbonyl)]piperazines having chymotrypsin-inhibitory activity” (Kowa Co., Ltd., priority 1983, dated 1986)
Structures can show the parent of a compound that is named as a salt.

target: chymotrypsin (Bos taurus, UniProt P00766); test: chymotrypsin inhibitory effect (procedure of Muramatsu et al; acetyl-L-tyrosine ethyl ester substrate, Hestrin colour development); type: biochemical; conditions: 10 min preincubation; 25 mM acetyl-L-tyrosine ethyl ester; 0.1M Tris-HCl pH 8.0; 37° C., 30 min; absorbance 530 nm; read-out: Inhibitory Activity [50% Inhibitory Concentration (M)]
Procedure: Some selected compounds of this invention were tested with respect to their chymotrypsin inhibitory effects.
The tests were conducted in accordance with the procedure of Muramatsu et al [The Journal of Biochemistry, 62, 408 (1967)]. A mixture was prepared which was made up of 0.1 ml of a dimethylsulfoxide solution of each test compound, 0.1 ml of water and 0.1 ml of a buffer solution containing 10 μg/ml of chymotrypsin (0.1M Tris-HCl buffer, pH 8.0). The mixture was incubated for 10 minutes, followed by addition of 0.2 ml of a buffer solution containing 25 mM of an ethyl ester of acetyl-L-tyrosine. The resulting mixture was reacted at 37° C. for 30 minutes. The remaining substrate was caused to develop a color by the Hesterin method, whereupon its absorbance was measured at 530 nm. As a comparative compound, use was made of tosylphenylalanine chloromethyl ketone (TPCK) which is known as an inhibitor for chymotrypsin.
The results are shown in Table 1 in which the numbers of the test compounds are indicated as those of the corresponding examples given hereunder.

| Structure (SMILES) | IC50 |
| --- | --- |
| CC(C)N1CCN(CC(=O)Nc2ccc(OC(=O)C3CCCc4ccccc43)cc2)CC1 (centres unmarked) [Example 1, 1-Isopropyl-4-[{4-(1,2,3,4-tetrahydro-1-naphthoyloxy)-phenyl}carbamoylmethyl]piperazine.dihydrochloride] | 4e-06 M |
| CC(C)N1CCN(CCNC(=O)c2ccc(OC(=O)C3CCCc4ccccc43)cc2)CC1 (centres unmarked) [Example 3] | 7e-07 M |

Now from value to molecule:

| IC50 | Structure (SMILES) |
| --- | --- |
| 3e-06 M | CC(C)N1CCN(C(=O)C=Cc2ccc(OC(=O)C3CCCc4ccccc43)cc2)CC1 (centres unmarked) [Example 2] |
| 6e-07 M | CN1CCN(C(=O)C=Cc2ccc(OC(=O)C3CCCc4ccccc43)cc2)CC1 (centres unmarked) [Example 4] |
| 3e-08 M | CC(C)N1CCN(C(=O)COC(=O)c2ccc(OC(=O)C3CCCc4ccccc43)cc2)CC1 (centres unmarked) [Example 5] |
